Assay results published in BindingDB's records for doi:10.1016/j.bmcl.2007.01.077 (Yale University, 2007).
pIC50: −log10 of the molar value.

Legend:
[1] = molecular target: T1, Signal transducer and activator of transcription 1-alpha/beta (Homo sapiens, UniProt P42224); assay: Electrophoretic Mobility Shift Assay (EMSA); conditions: pH 7.8; 22 °C
T1 sequence (P42224 whole entry): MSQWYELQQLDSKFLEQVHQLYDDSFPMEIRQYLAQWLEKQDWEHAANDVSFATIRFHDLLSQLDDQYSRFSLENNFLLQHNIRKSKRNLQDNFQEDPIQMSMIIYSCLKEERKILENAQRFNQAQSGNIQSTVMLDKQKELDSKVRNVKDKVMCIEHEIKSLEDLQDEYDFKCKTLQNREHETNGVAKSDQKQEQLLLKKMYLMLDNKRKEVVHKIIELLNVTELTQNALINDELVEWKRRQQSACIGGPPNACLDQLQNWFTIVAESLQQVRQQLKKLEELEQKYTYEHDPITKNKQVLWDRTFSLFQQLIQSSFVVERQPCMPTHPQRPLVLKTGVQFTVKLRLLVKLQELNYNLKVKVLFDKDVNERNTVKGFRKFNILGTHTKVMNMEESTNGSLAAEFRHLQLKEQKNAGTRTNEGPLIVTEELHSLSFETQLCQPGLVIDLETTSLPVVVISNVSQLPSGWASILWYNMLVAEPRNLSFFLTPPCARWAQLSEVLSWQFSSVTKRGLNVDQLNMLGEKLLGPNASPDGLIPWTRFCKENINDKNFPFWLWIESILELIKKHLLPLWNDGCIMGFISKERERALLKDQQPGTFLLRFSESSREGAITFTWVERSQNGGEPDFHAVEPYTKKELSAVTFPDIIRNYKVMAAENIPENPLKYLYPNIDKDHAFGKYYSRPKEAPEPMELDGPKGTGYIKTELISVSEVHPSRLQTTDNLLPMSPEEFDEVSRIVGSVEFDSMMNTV
Protocol: (§1) STAT proteins were expressed in Sf9 cells from a baculovirus encoding the recombinant protein. A nuclear extract of the Sf9 cells was incubated with 32P-labeled high affinity c-fos sis inducible element (hSIE) either alone or in the presence of inhibitor. After incubation, samples were electrophoresed on polyacrylamide gels. The gels were dried, exposed to a phosphorimager screen and scanned. IC50 values were derived from plots of spot intensity versus phosphopeptide concentration. The affinity of peptides to the SH2 domain is measured by the intensity of the radioactivity of the Stat-DNA complex band in the electrophoresis gel.

[2] = molecular target: Signal transducer and activator of transcription 3 (Mus musculus, UniProt P42227); assay: Electrophoretic Mobility Shift Assay (EMSA); conditions: pH 7.8; 22 °C
Sequence of Signal transducer and activator of transcription 3 (P42227 whole entry): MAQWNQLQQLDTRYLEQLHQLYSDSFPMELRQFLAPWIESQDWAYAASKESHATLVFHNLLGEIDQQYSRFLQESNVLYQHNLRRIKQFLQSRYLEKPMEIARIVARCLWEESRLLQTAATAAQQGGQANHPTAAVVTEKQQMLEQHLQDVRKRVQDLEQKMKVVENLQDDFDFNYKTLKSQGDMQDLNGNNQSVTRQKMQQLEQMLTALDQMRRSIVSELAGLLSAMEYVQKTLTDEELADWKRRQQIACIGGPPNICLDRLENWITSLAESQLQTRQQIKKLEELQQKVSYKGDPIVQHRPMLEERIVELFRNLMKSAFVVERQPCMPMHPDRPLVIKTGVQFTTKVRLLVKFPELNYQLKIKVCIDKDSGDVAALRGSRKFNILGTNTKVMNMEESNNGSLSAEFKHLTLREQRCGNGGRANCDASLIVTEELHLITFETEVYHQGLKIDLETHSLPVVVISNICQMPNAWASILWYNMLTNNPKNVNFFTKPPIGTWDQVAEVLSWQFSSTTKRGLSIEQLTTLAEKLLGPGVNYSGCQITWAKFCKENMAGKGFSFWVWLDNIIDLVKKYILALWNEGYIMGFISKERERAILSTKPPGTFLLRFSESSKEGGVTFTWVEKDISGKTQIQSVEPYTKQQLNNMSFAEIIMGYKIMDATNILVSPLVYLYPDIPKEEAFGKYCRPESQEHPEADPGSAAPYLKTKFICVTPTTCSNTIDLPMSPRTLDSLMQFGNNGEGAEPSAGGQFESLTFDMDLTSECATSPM
Protocol: as §1

**Q.** How did the pIC50 [1] turn out when `CC(C)C[C@H](NC(=O)[C@H](Cc1ccc(OP(=O)(O)O)cc1)NC(=O)c1ccc(C#N)cc1)C(=O)NC(C)C` [4-[(2S)-2-[(4-cyanophenyl)formamido]-2-{[(1S)-3-methyl-1-(propan-2-ylcarbamoyl)butyl]carbamoyl}ethyl]phenoxyphosphonic acid] was run?
**A.** The pIC50 was 4.24.

**Q.** What about the pIC50 [2] of the same molecule?
**A.** The pIC50 was 3.12.
